In series [1] the test system is DENV serotype 2 (NIBSC code S16803). Nature of the series: Plaque reduction assay in Vero cells, DENV2. The class given is cell-based, Dengue virus. How it is done:
(§1) The cells were grown in 24 well plates until the monolayer reached approximately 90% confluence, after which they were washed twice with MEM medium without Fetal Bovine Serum (FBS). Then, peptide dilutions were added and the cell-peptide mixtures were incubated typically for 1 hour at 37° C., followed by the addition of a DENV serotype 2 preparation (NIBSC code S16803) at a multiplicity of infection (m.o.i.) of 0.001. The cells were then incubated for 1 hour at 37° C., and once the period of incubation with the viral inoculum concluded, were washed again to remove unbound virions and incubated for 5 days at 37° C. in high density medium (MEM supplemented with non-essential amino acids, 1% FBS, 1% carboxymethylcellulose) in order to let viral plaques form. Afterwards, the cells were stained with 0.1% Naphtol Blue Black in 0.15 M sodium acetate. Two replicates per experimental point were used in each assay, and three independent determinations were performed for each sample.
Next, it was decided to compare the antiviral activity of peptides PHB4 and HDIII3CL against all four DENV serotypes, with the objective of comparing their respective IC50 values. This comparison was performed with plaque reduction assays on Vero cells, adding the viral inoculum for each serotype (DENV1, NIBSC code West Pac 74, DENV2, NIBSC, code S16803; DENV3, NIBSC, code CH53489; DENV 4, NIBSC code TVP360) at a m.o.i. of 0.001.
Background: In a plaque reduction assay, fewer plaques than in the control indicate reduced infectivity or spread.

Series [2] deals with DENV1 (NIBSC code West Pac 74). The series can be described thus: Plaque reduction assay in Vero cells, DENV1. The class given is cell-based, Dengue virus. Particulars: m.o.i. 0.001, read-out: Antiviral activity IC50 vs DENV1. How it is done:
as §1
(§2) Next, it was decided to compare the antiviral activity of peptides PHB4 and HDIII3CL against all four DENV serotypes, with the objective of comparing their respective IC50 values. […]

Series [3] relates to DENV3 (NIBSC code CH53489). Nature of the series: Plaque reduction assay in Vero cells, DENV3. Type of series: cell-based, Dengue virus. Particulars: m.o.i. 0.001, read-out: Antiviral activity IC50 vs DENV3. How it is done: as §1, §2
The subject of series [4] is DENV 4 (NIBSC code TVP360). Nature of the series: Plaque reduction assay in Vero cells, DENV4. The class given is cell-based, Dengue virus. Particulars: m.o.i. 0.001, read-out: Antiviral activity IC50 vs DENV4. On the procedure:
as §1, §2

Series [5] is described as follows: Toxicity in Vero cells (MTT assay and manual cell counting). Type of series: cell-based. Particulars: ‡ non toxic at 1000 μM, read-out: Ctox50. On the procedure:
The toxicity of the beta hairpin peptides was assessed with the MTT (3-(4,5-dimethylthiazol-2-yl)-2,5-diphenyltetrazolium bromide, Invitrogen, USA) assay (Mosmann, T. (1983). J. Immunol. Methods 65, 55-63.), and by manual cell counting using a Neubauer chamber. Ninety-six well plates (Costar, USA) were seeded with 200 μL/well of a suspension containing Vero cells at 1×10^5 cells/mL and incubated until the monolayers reached approximately 90% confluence, typically for 18-24 h. After washing the cells twice with DMEM (Dulbecco's Modified Eagle Medium) medium, 50 μL/well were added of the peptide or additive dilutions to be evaluated (Triton ^X-100™ dissolved in PBS was used as positive toxicity control) and the plates were incubated at 37° C. under a 5% CO2 atmosphere for 2 or 24 h. Two different procedures were then employed to measure toxicity: • a) A 2 mg/mL solution of MTT in PBS was added (50 μL/well) and the plates were incubated for further 4 h at 37° C., 5% CO2. The medium was then removed, and 100 μL/well of DMSO were then added to solubilize formazan precipitates. Finally, the optical density (OD) of the supernatants at a wavelength of 540 nm was measured using a plate reader (Sensident Scan™, Merck, Germany). • b) The plates were washed with 200 μL/well of DMEM medium and then a trypsin solution (Sigma, USA) was added at 50 μL/well. After inactivating the trypsin by adding 150 μL/well of DMEM supplemented with 10% FBS, the cells were counted using the Trypan Blue (Gibco, USA) vital stain. The data were processed using the statistical software package Prism v5.3 (GraphPad, USA), using non-linear regression to fit them to a log10 (concentration) vs response curve.
(In general: Formazan colour is commonly taken as a measure of viable cells.)

A further series relates to DENV2 strain S16803. On the procedure:
The antiviral activity of peptide PHB4 was evaluated after treatments facilitating its aggregation or in the presence of different agents that modulate aggregation, with the purpose of examining their effect on the inhibitory activity of this peptide for the infection of Huh7.5 cells with DENV2 strain S16803. Huh7.5, a human hepatoma-derived cell line, was selected not only because it is permissive for DENV2, but because of its relevance as an experimental system from the viewpoint of DENV pathogenesis (Lin Y L, et al. (2000) J Med Virol.; 60(4):425-31).
Antiviral activity was evaluated in virus yield assays, in which 80-90% confluent Huh7.5 monolayers were washed twice with non-supplemented DMEM and then infected at a m.o.i of 0.01 for 2 h at 37° C. and 5% CO2 in the presence of the different peptide preparations, after which the viral inoculum was removed by washing with non-supplemented DMEM, and the cells were grown in DMEM supplemented with 2% FBS. Cell supernatants were collected at 24 h p.i., and virus yields were determined by titrating the supernatant in a plaque formation assay (Morens D. M., et al. (1985). N. J. Clin. Microbiology; 22: 250-254).
Therefore, a first series of assays was set up in which, starting from a 20 μM solution of the peptide in water, dilutions were prepared in MEM spanning the 10-0.01 μM concentration range, which were then incubated in parallel at 10° C. and 37° C. for 2 hours and then used in a viral inhibition assay. Non-incubated peptide dilutions (that is, prepared right before the viral inhibition assay) were used as controls.
A second experiment was designed to determine the influence of aggregation time on the antiviral potency of peptide PHB4 (FIG. 18). […] This incubation with HSA was performed in parallel at either 10° C. or 37° C.

The test system of a further series is DENV2. Nature of the series: In vivo protection assay, intracranial challenge, DENV2. Set-up: species or system Balb/c mice. The settings on record: 30 μg peptide inoculated intracranially with 10 median lethal doses, 21 days. On the procedure: (§3) An experiment was set up to evaluate the in vivo antiviral activity of peptide PHB4 and compare it to that of peptide HDIII3CL. For this purpose, groups of 12 adult Balb/c mice (20 g average body weight) were anesthetized by ether inhalation and inoculated intracranially with 20 μL of viral preparations containing 10 times the median lethal dose of this model and the peptide to be evaluated. The animals recovered quickly and already appeared alert five minutes after the treatment, and were monitored afterwards for 21 days. The data were evaluated using the Kaplan-Meier logarithmic rank test.

A further series relates to DENV4. Nature of the series: In vivo protection assay, intracranial challenge, DENV4. Set-up: species or system Balb/c mice. The settings on record: 30 μg peptide inoculated intracranially with 10 median lethal doses, 21 days. On the procedure: as §3

The structures appear in SMILES notation. Read-outs that look alike come from different tables or passages of the source. Marks after values point to notes of the source that are not given here. Where a SMILES comes first, the peptide text is derived from it. Bridges are numbered along the chain shown (N, C = ends). [ ]: non-standard residue; d: D form.

The term IC50 denotes the concentration that inhibits the measured activity by half.

As for `CC[C@H](C)[C@@H]1NC(=O)[C@H](Cc2ccccc2)NC(=O)[C@H](Cc2c[nH]c3ccccc23)NC(=O)[C@H](CC(N)=O)NC(=O)[C@H](C(C)C)NC(=O)[C@H](CCCCN)NC(=O)[C@H](Cc2c[nH]c3ccccc23)NC(=O)[C@H](CCCCN)NC(=O)[C@H]2CCCN2C(=O)[C@H](CCCNC(=N)N)NC(=O)[C@H]([C@@H](C)O)NC(=O)[C@H](Cc2c[nH]c3ccccc23)NC(=O)[C@H](Cc2ccc(O)cc2)NC(=O)[C@H](C(C)C)NC(=O)[C@H](CCC(=O)O)NC(=O)[C@H]([C@@H](C)CC)NC(=O)[C@@H](N)CSSC[C@@H](C(=O)N[C@@H](CCCCN)C(=O)N[C@@H](CCCCN)C(=O)N[C@@H](CCCCN)C(N)=O)NC1=O` [PHB4] (H-CIEVYWTR[dP]KWKVNWFICKKK-NH2; disulfide 1-18; N-terminus assumed), the IC50 in series [1] (DENV2, plaque reduction, NA = no detectable activity at concentrations lower than or equal to 100 μM, read-out: IC50, antiviral activity in Vero cells (50% inhibitory activity)) came out at 3 nM; in series [1] (Vero cells, m.o.i. 0.001, read-out: Antiviral activity IC50 vs DENV2) it was 3 nM; in series [2], 2 nM; in series [3], 5 nM; in series [4] it was 10 nM; in the series with DENV2 strain S16803 (read-out: IC50, 2 hrs-10° C., Huh7.5 cells, peptide pre-incubated in MEM 2 h at 10° C.), 37 nM. For the same compound, the IC50 in the series with DENV2 strain S16803 (read-out: IC50, 2 hrs-37° C., Huh7.5 cells, peptide pre-incubated in MEM 2 h at 37° C.) worked out at 890 nM; in the series with DENV2 strain S16803 (read-out: IC50, no incubation, Huh7.5 cells, peptide dissolved in MEM, non-incubated), 160 nM. Also, the “Fold more potent than peptide HDIII3CL” value in series [1] (depending on serotype, DENV1-4, Vero cells) is reported as 4000- to 7500 fold. The CC50 in series [5] came out at 13000 nM. Moreover, the “Variation in potency with incubation temperature” value in the series on DENV2 strain S16803 (10° C. vs 37° C. pre-incubation) was found to be 24 fold. The compound also yielded an IC100 in the series with DENV2 strain S16803 (Huh7.5 cells, non-incubated peptide in MEM) of 10 µM. The “Protection (%) DENV2” value with DENV2 is 100*** %. For the same compound, the “Protection (%) DENV4” value in the series with DENV4 was 100*** %.

These data come from US9896482B2, “Beta hairpin peptides having antiviral properties against Dengue virus” (CENTRO DE INGENIERÍA GENÉTICA Y BIOTECNOLOGÍA, priority 2014, dated 2018).
